Data published in publication PMC9475448, “What a difference a methylene makes: replacing Glu with Asp or Aad in the Lys-urea-Glu pharmacophore of PSMA-targeting radioligands to reduce kidney and salivary gland uptake” (Theranostics, 2022).
“Also recorded” adds a separate entry of the source.

Legend:
LNCaP tumor-bearing mice [1] = experiment: Ex vivo biodistribution of 177Lu-labeled ligands in LNCaP tumor-bearing NRG mice
[2] = test system: LNCaP tumor and major mouse organs/tissues; experiment: Radiation dosimetry calculation with OLINDA software from biodistribution data; conditions: 25-g mouse
Source text: The biodistribution data (available in the Supplemental Table s 5- 6) were used to determine the kinetics input values required by OLINDA. First, each of the values was decayed to its corresponding time point (the values on the table are shown at injection time). Then the different time-points of the uptake data (%IA/g) for each organ were fitted to both mono- exponential ( ) and bi-exponential ( ) functions using in-house software developed in Python. The best fit was selected based on maximizing the coefficient of determination (R2) of the fit and minimizing the residuals. The areas under the curves were analytically calculated based on the parameters obtained from the best fit of each organ and this provided the kinetic input values required by OLINDA.
In the mouse case, the adrenals, blood, fat, and muscle are not modeled in the phantom. These organs were grouped together and included in what OLINDA calls the remainder of the body .
Lastly, the numbers of decays in the tumors were also calculated based on the biodistribution data of the mice and the values were inputted into the sphere model available in OLINDA.

LNCaP tumor-bearing mice [3] = experiment: Longitudinal SPECT/CT imaging of 177Lu-labeled ligands; assay type: in vivo
Procedure: SPECT/CT imaging experiments were conducted using the MILabs (Utrecht, The Netherlands) U-SPECT-II/CT scanner. Each tumor-bearing mouse (n = 1-2 was injected with ∼37 MBq (50-250 pmol) of ^177Lu-labeled compound through a lateral caudal tail vein. The mice were imaged at 1, 4, 24, 72, and 120 h after injection. At each time point, a 5-min CT scan was conducted first for anatomical reference followed by 2 × 30-min static emission scans acquired in list mode.

For `O=C([O-])CN1CCN(CC(=O)[O-])CCN(CC(=O)NCC2CCC(C(=O)NC(Cc3c4ccccc4cc4ccccc34)C(=O)NCCCCC(NC(=O)NC(CCCC(=O)O)C(=O)O)C(=O)O)CC2)CCN(CC(=O)[O-])CC1.[177Lu+3]` (stereo not drawn) [[^177Lu]Lu-HTK03149], the Salivary glands uptake (LNCaP tumor-bearing mice [1]; 24 h post-injection) was 0.049 ± 0.007 %IA/g, the Spleen uptake (LNCaP tumor-bearing mice [1]; 24 h post-injection) was 0.085 ± 0.012 %IA/g and the Stomach uptake (LNCaP tumor-bearing mice [1]; 24 h post-injection) was 0.125 ± 0.112 %IA/g. It also gave a Testes uptake (LNCaP tumor-bearing mice [1]; 24 h post-injection) of 0.047 ± 0.003 %IA/g, a Thyroid uptake (LNCaP tumor-bearing mice [1]; 24 h post-injection) of 0.060 ± 0.002 %IA/g and a Tumor uptake (LNCaP tumor-bearing mice [1]; 24 h post-injection) of 13.80 ± 2.876 %IA/g. The “Tumor:Blood uptake ratio” value (LNCaP tumor-bearing mice [1]; 24 h post-injection) was 120 ± 31.1, the “Tumor:Muscle uptake ratio” value (LNCaP tumor-bearing mice [1]; 24 h post-injection) was 842 ± 216 and the “Tumor:Salivary gland uptake ratio” value (LNCaP tumor-bearing mice [1]; 24 h post-injection) was 286 ± 88.4. The Adrenal glands uptake (LNCaP tumor-bearing mice [1]; 72 h post-injection) was 0.124 ± 0.052 %IA/g, the Blood uptake (LNCaP tumor-bearing mice [1]; 72 h post-injection) was 0.067 ± 0.016 %IA/g and the “Blood:Salivary gland uptake ratio” value (LNCaP tumor-bearing mice [1]; 72 h post-injection) was 1.45 ± 0.69. It also gave a Bone uptake (LNCaP tumor-bearing mice [1]; 72 h post-injection) of 0.026 ± 0.011 %IA/g, a Brain uptake (LNCaP tumor-bearing mice [1]; 72 h post-injection) of 0.003 ± 0.002 %IA/g and a Fat uptake (LNCaP tumor-bearing mice [1]; 72 h post-injection) of 0.042 ± 0.042 %IA/g. The Heart uptake (LNCaP tumor-bearing mice [1]; 72 h post-injection) was 0.060 ± 0.014 %IA/g, the Intestines uptake (LNCaP tumor-bearing mice [1]; 72 h post-injection) was 0.088 ± 0.034 %IA/g and the Kidneys uptake (LNCaP tumor-bearing mice [1]; 72 h post-injection) was 0.679 ± 0.387 %IA/g. The Lacrimal glands uptake (LNCaP tumor-bearing mice [1]; 72 h post-injection) was 0.006 ± 0.007 %IA/g, the Liver uptake (LNCaP tumor-bearing mice [1]; 72 h post-injection) was 0.130 ± 0.034 %IA/g and the Lungs uptake (LNCaP tumor-bearing mice [1]; 72 h post-injection) was 0.108 ± 0.022 %IA/g. For the same molecule, the Muscle uptake (LNCaP tumor-bearing mice [1]; 72 h post-injection) was 0.018 ± 0.003 %IA/g, the Pancreas uptake (LNCaP tumor-bearing mice [1]; 72 h post-injection) was 0.033 ± 0.002 %IA/g and the Salivary glands uptake (LNCaP tumor-bearing mice [1]; 72 h post-injection) was 0.051 ± 0.016 %IA/g. The Stomach uptake (LNCaP tumor-bearing mice [1]; 72 h post-injection) was 0.140 ± 0.104 %IA/g, the Testes uptake (LNCaP tumor-bearing mice [1]; 72 h post-injection) was 0.053 ± 0.008 %IA/g and the Thyroid uptake (LNCaP tumor-bearing mice [1]; 72 h post-injection) was 0.079 ± 0.008 %IA/g. The Tumor uptake (LNCaP tumor-bearing mice [1]; 72 h post-injection) was 17.1±4.70 %IA/g, the “Tumor:Blood uptake ratio” value (LNCaP tumor-bearing mice [1]; 72 h post-injection) was 258 ± 74.7 and the “Tumor:Muscle uptake ratio” value (LNCaP tumor-bearing mice [1]; 72 h post-injection) was 985 ± 342. For the same molecule, the “Tumor:Salivary gland uptake ratio” value (LNCaP tumor-bearing mice [1]; 72 h post-injection) was 349 ± 109, the Tumor uptake (LNCaP tumor-bearing mice [1]; 72 h post-injection, listed as [177Lu]Lu-HTK03149) was 17.12 ± 4.702 %IA/g and the Adrenal glands uptake (LNCaP tumor-bearing mice [1]; 120 h post-injection) was 0.024 ± 0.027 %IA/g. The Blood uptake (LNCaP tumor-bearing mice [1]; 120 h post-injection) was 0.021 ± 0.006 %IA/g, the “Blood:Salivary gland uptake ratio” value (LNCaP tumor-bearing mice [1]; 120 h post-injection) was 0.75 ± 0.19 and the Bone uptake (LNCaP tumor-bearing mice [1]; 120 h post-injection) was 0.015 ± 0.007 %IA/g. The Brain uptake (LNCaP tumor-bearing mice [1]; 120 h post-injection) was 0.002 ± 0.001 %IA/g, the Fat uptake (LNCaP tumor-bearing mice [1]; 120 h post-injection) was 0.014 ± 0.009 %IA/g and the Heart uptake (LNCaP tumor-bearing mice [1]; 120 h post-injection) was 0.034 ± 0.014 %IA/g. It also gave an Intestines uptake (LNCaP tumor-bearing mice [1]; 120 h post-injection) of 0.069 ± 0.046 %IA/g, a Kidneys uptake (LNCaP tumor-bearing mice [1]; 120 h post-injection) of 0.276 ± 0.064 %IA/g and a Lacrimal glands uptake (LNCaP tumor-bearing mice [1]; 120 h post-injection) of 0.001 ± 0.002 %IA/g. The Liver uptake (LNCaP tumor-bearing mice [1]; 120 h post-injection) was 0.079 ± 0.041 %IA/g, the Lungs uptake (LNCaP tumor-bearing mice [1]; 120 h post-injection) was 0.086 ± 0.076 %IA/g and the Muscle uptake (LNCaP tumor-bearing mice [1]; 120 h post-injection) was 0.012 ± 0.004 %IA/g. The Pancreas uptake (LNCaP tumor-bearing mice [1]; 120 h post-injection) was 0.020 ± 0.007 %IA/g, the Salivary glands uptake (LNCaP tumor-bearing mice [1]; 120 h post-injection) was 0.029 ± 0.007 %IA/g and the Spleen uptake (LNCaP tumor-bearing mice [1]; 120 h post-injection) was 0.129 ± 0.079 %IA/g. It also gave a Stomach uptake (LNCaP tumor-bearing mice [1]; 120 h post-injection) of 0.084 ± 0.041 %IA/g, a Testes uptake (LNCaP tumor-bearing mice [1]; 120 h post-injection) of 0.033 ± 0.012 %IA/g and a Thyroid uptake (LNCaP tumor-bearing mice [1]; 120 h post-injection) of 0.044 ± 0.015 %IA/g. The Tumor uptake (LNCaP tumor-bearing mice [1]; 120 h post-injection) was 16.39 ± 10.99 %IA/g, the “Tumor:Blood uptake ratio” value (LNCaP tumor-bearing mice [1]; 120 h post-injection) was 780 ± 451 and the “Tumor:Muscle uptake ratio” value (LNCaP tumor-bearing mice [1]; 120 h post-injection) was 1336 ± 566. The “Tumor:Salivary gland uptake ratio” value (LNCaP tumor-bearing mice [1]; 120 h post-injection) was 533 ± 218, the Kinetics value ([2]; source organ Brain) was 2.23E-03 MBq-h/MBq and the Kinetics value ([2]; source organ Cortical bone) was 7.60E-02 MBq-h/MBq. The Kinetics value ([2]; source organ Heart contents) was 1.94E-02 MBq-h/MBq, the Kinetics value ([2]; source organ Kidneys) was 2.41E-01 MBq-h/MBq and the Kinetics value ([2]; source organ Large intestine) was 9.24E-02 MBq-h/MBq. It also gave a Kinetics value ([2]; source organ Liver) of 3.91E-01 MBq-h/MBq, a Kinetics value ([2]; source organ Lungs) of 1.72E-02 MBq-h/MBq and a Kinetics value ([2]; source organ Pancreas) of 1.79E-02 MBq-h/MBq. For the same molecule, the Kinetics value ([2]; source organ Remainder of the body) was 5.31E-01 MBq-h/MBq, the Kinetics value ([2]; source organ Small intestine) was 2.76E-01 MBq-h/MBq and the Kinetics value ([2]; source organ Spleen) was 2.30E-02 MBq-h/MBq. It also gave a Kinetics value ([2]; source organ Stomach) of 8.07E-03 MBq-h/MBq, a Kinetics value ([2]; source organ Testes) of 1.29E-02 MBq-h/MBq and a Kinetics value ([2]; source organ Thyroid) of 2.03E-03 MBq-h/MBq. The Kinetics value ([2]; source organ Urinary bladder contents) was 8.14E-01 MBq-h/MBq, the “Excretion pathway (SPECT imaging)” value (LNCaP tumor-bearing mice [3]; mouse, in vivo) was “excreted mainly through the renal pathway; also recorded: excreted mainly via the renal pathway” and the “Tumor size change in SPECT/CT images” value (LNCaP tumor-bearing mice [3]; ~37 MBq injected) was “tumors shrank from Day 1 to Day 5”.
